Experiments:
[1] = target: T1, recombinant human Meningioma Expressed Antigen 5 (MGEA5), also referred to as O-GlcNAcase (OGA) (Homo sapiens, UniProt O60502); assay: OGA biochemical assay (inhibition of FM-GlcNAc hydrolysis, fluorescence); details: FM-GlcNAc substrate; for IC50: 6 h at room temperature, read-out: Enzymatic hOGA, pIC50 (converted); for Enzymatic Emax (%) / Emax: maximal effect; for Emax: read-out: Enzymatic Emax (%)
T1 construct: Full length OGA enzyme was purchased at OriGene (cat #TP322411); purchased OriGene TP322411
T1 sequence (O60502 1-916): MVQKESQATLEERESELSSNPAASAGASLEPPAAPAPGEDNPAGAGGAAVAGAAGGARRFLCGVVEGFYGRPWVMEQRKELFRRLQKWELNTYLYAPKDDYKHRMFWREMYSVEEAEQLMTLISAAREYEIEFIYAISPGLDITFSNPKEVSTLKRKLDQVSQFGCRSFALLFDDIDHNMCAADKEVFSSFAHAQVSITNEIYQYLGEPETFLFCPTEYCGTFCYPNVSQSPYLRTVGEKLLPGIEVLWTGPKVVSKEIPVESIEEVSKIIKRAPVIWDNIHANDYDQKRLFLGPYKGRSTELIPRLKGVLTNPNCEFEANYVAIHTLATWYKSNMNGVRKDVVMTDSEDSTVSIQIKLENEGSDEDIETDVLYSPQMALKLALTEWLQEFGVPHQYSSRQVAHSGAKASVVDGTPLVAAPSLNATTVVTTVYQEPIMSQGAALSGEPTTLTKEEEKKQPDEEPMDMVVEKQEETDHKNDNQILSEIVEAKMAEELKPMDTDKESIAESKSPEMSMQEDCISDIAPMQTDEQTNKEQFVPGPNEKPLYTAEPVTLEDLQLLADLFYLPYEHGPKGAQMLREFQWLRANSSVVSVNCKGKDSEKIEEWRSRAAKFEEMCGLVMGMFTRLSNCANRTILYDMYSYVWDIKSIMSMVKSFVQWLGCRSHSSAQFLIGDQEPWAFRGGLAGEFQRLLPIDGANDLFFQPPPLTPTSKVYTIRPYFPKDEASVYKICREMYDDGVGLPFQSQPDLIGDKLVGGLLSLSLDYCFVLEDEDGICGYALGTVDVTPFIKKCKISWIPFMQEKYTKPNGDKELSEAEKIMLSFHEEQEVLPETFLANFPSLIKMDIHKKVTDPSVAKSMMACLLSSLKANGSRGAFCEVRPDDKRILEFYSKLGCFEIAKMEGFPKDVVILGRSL
Excerpt: The assay is based on the inhibition of the hydrolysis of fluorescein mono-β-D-N-Acetyl-Glucosamine (FM-GlcNAc) (Mariappa et al. 2015, Biochem J 470:255) by the recombinant human Meningioma Expressed Antigen 5 (MGEA5), also referred to as O-GlcNAcase (OGA). The hydrolysis FM-GlcNAc (Marker Gene technologies, cat #M1485) results in the formation of β-D-N-glucosamineacetate and fluorescein. The fluorescence of the latter can be measured at excitation wavelength 485 nm and emission wavelength 538 nm. An increase in enzyme activity results in an increase in fluorescence signal. Full length OGA enzyme was purchased at OriGene (cat #TP322411). The enzyme was stored in 25 mM Tris.HCl, pH 7.3, 100 mM glycine, 10% glycerol at −20° C. Thiamet G and GlcNAcStatin were tested as reference compounds (Yuzwa et al. 2008 Nature Chemical Biology 4:483; Yuzwa et al. 2012 Nature Chemical Biology 8:393). The assay was performed in 200 mM Citrate/phosphate buffer supplemented with 0.005% Tween-20. 35.6 g Na2HPO4 2 H2O (Sigma, #C0759) were dissolved in 1 L water to obtain a 200 mM solution. 19.2 g citric acid (Merck, #1.06580) was dissolved in 1 L water to obtain a 100 mM solution. pH of the sodium phosphate solution was adjusted with the citric acid solution to 7.2. The buffer to stop the reaction consists of a 500 mM Carbonate buffer, pH 11.0. 734 mg FM-GlcNAc were dissolved in 5.48 mL DMSO to obtain a 250 mM solution and was stored at −20° C. OGA was used at a 2 nM concentration and FM-GlcNAc at a 100 uM final concentration. Dilutions were prepared in assay buffer.
50 nl of a compound dissolved in DMSO was dispensed on Black Proxiplate™ 384 Plus Assay plates (Perkin Elmer, #6008269) and 3 μl fl-OGA enzyme mix added subsequently. Plates were pre-incubated for 60 min at room temperature and then 2 μl FM-GlcNAc substrate mix added. […] Plates were briefly centrifuged for 1 min at 1000 rpm and incubate at room temperature for 6 h. To stop the reaction 5 μl STOP buffer were added and plates centrifuge again 1 min at 1000 rpm. Fluorescence was quantified in the Thermo Scientific Fluoroskan Ascent or the PerkinElmer EnVision with excitation wavelength 485 nm and emission wavelength 538 nm.
For analysis a best-fit curve is fitted by a minimum sum of squares method. From this an IC50 value and Hill coefficient was obtained. High control (no inhibitor) and low control (saturating concentrations of standard inhibitor) were used to define the minimum and maximum values.

OGA = target: T2, OGA (Homo sapiens, UniProt O60502); assay: OGA cellular assay (ICC detection of O-GlcNAcylated proteins in HEK293 cells inducible for P301L mutant human Tau); assay type: cell-based; details: for EC50 / Cellular Emax (%) / Cellular hOGA; pEC50: HEK293 cells inducible for P301L mutant human Tau; for EC50 / Cellular hOGA; pEC50: 6 hours incubation, ICC O-GlcNAcylation; for EC50: read-out: Cellular hOGA, pEC50 (converted); for Cellular Emax (%) / Emax: maximum defined by Thiamet G at 200 uM; for Emax: HEK293, HEK293 cells inducible for P301L mutant human Tau
T2 construct: endogenous in cells; host or cells: HEK293 cells inducible for P301L mutant human Tau (isoform 2N4R)
T2 sequence (O60502 1-916): T1 sequence (O60502 1-916)
Method: HEK293 cells inducible for P301L mutant human Tau (isoform 2N4R) were established at Janssen. Thiamet-G was used for both plate validation (high control) and as reference compound (reference EC50 assay validation). OGA inhibition is evaluated through the immunocytochemical (ICC) detection of O-GlcNAcylated proteins by the use of a monoclonal antibody (CTD110.6; Cell Signaling, #9875) detecting O-GlcNAcylated residues as previously described (Dorfmueller et al. 2010 Chemistry & biology, 17:1250). Inhibition of OGA will result in an increase of O-GlcNAcylated protein levels resulting in an increased signal in the experiment. Cell nuclei are stained with Hoechst to give a cell culture quality control and a rough estimate of immediate compounds toxicity, if any. ICC pictures are imaged with a Perkin Elmer Opera Phenix plate microscope and quantified with the provided software Perkin Elmer Harmony 4.1.
Cells were propagated in DMEM high Glucose (Sigma, #D5796) following standard procedures. 2 days before the cell assay cells are split, counted and seeded in Poly-D-Lysine (PDL) coated 96-wells (Greiner, #655946) plate at a cell density of 12,000 cells per cm^2 (4,000 cells per well) in 100 μl of Assay Medium (Low Glucose medium is used to reduce basal levels of GlcNAcylation) (Park et al. 2014 The Journal of biological chemistry 289:13519). At the day of compound test medium from assay plates was removed and replenished with 90 μl of fresh Assay Medium. 10 μl of compounds at a 10 fold final concentration were added to the wells. Plates were centrifuged shortly before incubation in the cell incubator for 6 hours. DMSO concentration was set to 0.2%. Medium is discarded by applying vacuum. For staining of cells medium was removed and cells washed once with 100 μl D-PBS (Sigma, #D8537). From next step onwards unless other stated assay volume was always 50 μl and incubation was performed without agitation and at room temperature. Cells were fixed in 50 μl of a 4% paraformaldehyde (PFA, Alpha aesar, #043368) PBS solution for 15 minutes at room temperature. […] Before analysis samples were washed 2 times manually for 5 minutes in ICC base buffer.
Imaging is performed using Perkin Elmer Phenix Opera using a water 20× objective and recording 9 fields per well. Intensity readout at 488 nm is used as a measure of O-GlcNAcylation level of total proteins in wells. To assess potential toxicity of compounds nuclei were counted using the Hoechst staining. IC50-values are calculated using parametric non-linear regression model fitting. As a maximum inhibition Thiamet G at a 200 uM concentration is present on each plate. In addition, a concentration response of Thiamet G is calculated on each plate.

Row | IC50 [1] | Enzymatic Emax (%) [1] | EC50 (OGA) | Cellular Emax (%) (OGA) | Emax (OGA) | Emax [1] | Cellular hOGA; pEC50 (OGA) | Compound
1 | 126 nM | 97% | 794 nM | 56% | – | – | – | Cc1cc(C[C@H]2CN(C(C)c3ccc4c(n3)OCCO4)C[C@@H]2C)cc(C)n1 (mixture of isomers) [Product 61]
2 | 398 nM | 93% | – | 7% | – | – | <6 | Cc1cc(OC[C@]2(C)CCN([C@H](C)c3ccc4c(n3)OCCO4)C2)cc(C)n1 (single isomer, unassigned) [Product 102]
3 | 31.6 nM | – | 631 nM | – | 49% | 100% | – | Cc1cc(C[C@@H]2CCN(C(C)c3cnc4c(c3)OCCN4)C2)cc(C)n1 (mixture of isomers) [Product 118]
4 | 50.1 nM | – | 631 nM | – | 58% | 100% | – | Cc1cc(OC[C@@H]2CCN(C(C)c3nc4c(cc3F)OCCO4)C2)cc(C)n1 (some centres unmarked) [Product 50]
5 | 5010 nM | – | > 1000 nM | – | -5% | 70% | – | Cc1cc(CO[C@H]2CCN(C(C)c3ccc4c(n3)OCCO4)C2)cc(C)n1 (some centres unmarked) [Product 49]
6 | 2.51 nM | – | 20 nM | – | 77% | 101% | – | Cc1cc(O[C@@H]2CCN(C(C)c3nc4c(cc3F)CCO4)C2)cc(C)n1 (some centres unmarked) [Product 17]

The next lines start with the compound.

Row | Compound | IC50 [1] | Enzymatic Emax (%) [1] | EC50 (OGA) | Cellular Emax (%) (OGA) | Emax (OGA) | Emax [1] | Cellular hOGA; pEC50 (OGA)
7 | CC(c1cc2c(cc1F)OCCO2)N1CC[C@H](Cc2ncc(F)cc2F)C1 (single isomer, unassigned) [Product 29] | 50.1 nM | 102% | > 1000 nM | – | 35% | – | –
8 | COc1cc(C[C@H]2CN([C@@H](C)c3ccc4c(n3)OCCO4)C[C@@H]2C)cc(C)n1 (stereo in doubt) [Product 123] | 126 nM | – | ~1000 nM | – | 47% | 100% | –
9 | Cc1cc(O[C@@H]2CCN(C(C)c3nc4c(cc3F)OCCO4)C2)cc(C)n1 (some centres unmarked) [Product 38] | 20 nM | – | 316 nM | – | 69% | 98% | –
10 | Cc1cc(C[C@H]2CCN(C(C)c3ccc4c(c3)OCC4)C2)cc(C(F)(F)F)n1 (some centres unmarked) [Product 6] | 79.4 nM | – | > 1000 nM | – | 47% | 103% | –
11 | COc1cc(C[C@H]2CCN([C@@H](C)c3cc4c(cc3F)NCCO4)C2)cc(C)n1 (racemic) [Product 82] | 10 nM | – | 251 nM | – | 81% | 101% | –
12 | Cc1cc(O[C@@H]2CCN(C(C)c3ccc4c(n3)OCCO4)C2)cc(C)n1 (single isomer, unassigned) [Product 74] | 7940 nM | 50% | > 1000 nM | −9% | – | – | –
13 | Cc1cc(C[C@@H]2CCN(C(C)c3nc4c(cc3F)OCCO4)C2)cc(C)n1 (single isomer, unassigned) [Product 51] | 398 nM | – | > 1000 nM | 8% | – | 96% | –
14 | Cc1cc(C[C@@H]2CCN(C(C)c3nc4c(cc3F)OCCO4)C2)cc(C)n1 (mixture of isomers) [Product 79] | 7.94 nM | – | 100 nM | – | 85% | 98% | –
15 | Cc1cc(OC[C@H]2CCN(C(C)c3nc4c(cc3F)OCCO4)C2)cc(C)n1 (mixture of isomers) [Product 119] | 100 nM | – | 631 nM | – | 59% | 100% | –
16 | Cc1cc(C[C@@H]2CCN(C(C)c3nc4c(cc3F)OCCO4)C2)cc(C)n1 (single isomer, unassigned) [Product 52] | 6.31 nM | 101% | 63.1 nM | 80% | – | – | –
17 | CC(c1ccc2c(n1)OCCO2)N1CC[C@@H](Oc2ccc(C#N)nn2)C1 (single isomer, unassigned) [Product 54] | > 10000 nM | 19% | > 1000 nM | 2% | – | – | –
18 | Cc1cc(C[C@@H]2CCN(C(C)c3ccc4c(n3)OCCO4)C2)nc(C)n1 (some centres unmarked) [Product 37] | 251 nM | – | > 1000 nM | – | 14% | 96% | –
19 | Cc1cc(CC2(C)CCN(C(C)c3ccc4c(n3)OCCO4)C2)cc(C)n1 (centres unmarked) [Product 59] | 398 nM | 97% | – | 34% | – | – | <6
20 | Cc1cc(C[C@H]2CN(C(C)c3ccc4c(n3)OCCO4)C[C@@H]2C)cc(C)n1 (mixture of isomers) [Product 60] | 79.4 nM | – | > 1000 nM | – | 44% | 99% | –

— patent publication US20210277015A1, “OGA INHIBITOR COMPOUNDS” (Janssen Pharmaceutica NV, priority 2018, published 2021)
